# Test results from US12091409B2, “Ether linked triazoles as NRF2 activators” (ASTEX THERAPEUTICS LIMITED, priority 2016, dated 2024).
# Test system: NQO1 specific enzyme activity in BEAS-2B cells (marker for NRF2 activation)
# Assay: BEAS-2B NQO1 MTT Assay
# Format: cell-based
# Details: Homo sapiens, BEAS-2B, 48 h, NQO1 specific activity induction, 48 hours with compound
# From the text: NAD(P)H:quinone oxidoreductase 1 (NQO1), also called DT diaphorase, is a homodimeric FAD-containing enzyme that catalyzes obligatory NAD(P)H-dependent two-electron reductions of quinones and protects cells against the toxic and neoplastic effects of free radicals and reactive oxygen species arising from one-electron reductions. The transcription of NQO1 is finely regulated by NRF2, and thus NQO1 activity is a good marker for NRF2 activation. On day one, frozen BEAS-2B cells (ATCC) were thawed in a water bath, counted, and re-suspended at a concentration of 250,000 cells/mL. Fifty microliters of cells were plated in 384 well black clear-bottomed plates. Plates were incubated at 37° C., 5% CO2 overnight. On day two, plates were centrifuged and 50 nL of compound or controls were added to the cells. Plates were then incubated at 37° C., 5% CO2 for 48 hours. On day four, medium was aspirated from the plate and crude cell lysates were made by adding 13 uL of 1× Cell Signaling Technologies lysis buffer with 1 Complete, Mini, EDTA-free Protease Inhibitor Tablet (Roche) for each 10 mL of lysis buffer. After lysis plates were incubated for 20 minutes at room temperature. Two microliters of lysate were removed for use in Cell Titer Glo assay (Promega) and MTT cocktail was prepared (Prochaska et. al. 1998) for measurement of NQO1 activity. Fifty microliters of MTT cocktail was added to each well, plate was centrifuged, and analyzed on an Envision plate reader (Perkin Elmer) using Absorbance 570 nm label for 30 minutes. Product formation was measured kinetically and the pEC50 of NQO1 specific activity induction was calculated by plotting the change in absorbance (Delta OD/min) versus the log of compound concentration followed by 3-parameter fitting.
# pEC50 is the negative log of the EC50.
# EC50s<1 nM (+++++), EC50s 1 nM-10 nM (++++), EC50s 10 nM-100 nM (+++), EC50s 100 nM-1 uM (++), EC50s 1 uM-10 uM (+); EC50s>10 uM (−), or were not determined (ND).
row,SMILES,EC50
1,"Cc1ccc([C@H](OCc2cn(Cc3ccc(Cn4cc(CO[C@@H](c5ccc(C)c(CN6C[C@@H](C)Oc7ccccc7S6(=O)=O)c5)C(C)(C)C(=O)O)nn4)cc3)nn2)C(C)(C)C(=O)O)cc1CN1C[C@@H](C)Oc2ccccc2S1(=O)=O (relative stereo) [Example 46, (R,rel-(3S,3'S))-3,3′-(((1,1′-(1,4-phenylenebis(methylene))bis(1H-1,2,3-triazole-4,1-diyl))bis(methylene))bis(oxy))bis(2,2-dimethyl-3-(4-methyl-3-(((R)-4-methyl-1,1-dioxido-3,4-dihydro-2H-benzo[b][1,4,5]oxathiazepin-2-yl)methyl)phenyl)propanoic acid)]",10 to 100 nM
2,"Cc1ccc([C@@H](OCc2cn(Cc3ccc(Cn4cc(CO[C@H](c5ccc(C)c(CN6C[C@@H](C)Oc7ccccc7S6(=O)=O)c5)C(C)(C)C(=O)O)nn4)cc3)nn2)C(C)(C)C(=O)O)cc1CN1C[C@@H](C)Oc2ccccc2S1(=O)=O (relative stereo) [Example 49, (R,rel-(3R,3′R))-3,3′-(((1,1′-(1,4-phenylenebis(methylene))bis(1H-1,2,3-triazole-4,1-diyl))bis(methylene))bis(oxy))bis(2,2-dimethyl-3-(4-methyl-3-(((R)-4-methyl-1,1-dioxido-3,4-dihydro-2H-benzo[b][1,4,5]oxathiazepin-2-yl)methyl)phenyl)propanoic acid)]",100 to 1000 nM
3,"Cc1ccc([C@H](OCc2cn(CCOCCn3cc(CO[C@@H](c4ccc(C)c(CN5C[C@@H](C)Oc6ccccc6S5(=O)=O)c4)C(C)(C)C(=O)O)nn3)nn2)C(C)(C)C(=O)O)cc1CN1C[C@@H](C)Oc2ccccc2S1(=O)=O (relative stereo) [Example 50, (R,rel-3S, rel-3′S)-3,3′-(((1,1′-(oxybis(ethane-2,1-diyl))bis(1H-1,2,3-triazole-4,1-diyl))bis(methylene))bis(oxy))bis(2,2-dimethyl-3-(4-methyl-3-(((R)-4-methyl-1,1-dioxido-3,4-dihydro-2H-benzo[b][1,4,5]oxathiazepin-2-yl)methyl)phenyl)propanoic acid)]",10 to 100 nM
4,"Cc1ccc([C@@H](OCc2cn(CCOCCn3cc(CO[C@H](c4ccc(C)c(CN5C[C@@H](C)Oc6ccccc6S5(=O)=O)c4)C(C)(C)C(=O)O)nn3)nn2)C(C)(C)C(=O)O)cc1CN1C[C@@H](C)Oc2ccccc2S1(=O)=O (relative stereo) [Example 51, (R,rel-3R, rel-3′R)-3,3′-(((1,1′-(oxybis(ethane-2,1-diyl))bis(1H-1,2,3-triazole-4,1-diyl))bis(methylene))bis(oxy))bis(2,2-dimethyl-3-(4-methyl-3-(((R)-4-methyl-1,1-dioxido-3,4-dihydro-2H-benzo[b][1,4,5]oxathiazepin-2-yl)methyl)phenyl)propanoic acid)]",1000 to 10000 nM
5,"Cc1ccc(C(OCc2cn(CCOCCN=[N+]=[N-])nn2)C(C)(C)C(=O)O)cc1CN1C[C@@H](C)Oc2ccccc2S1(=O)=O (single isomer, unassigned) [Example 14]",1 to 10 nM
6,"Cc1ccc([C@@H](OCc2cn(CCOCCN=[N+]=[N-])nn2)C(C)(C)C(=O)O)cc1CN1C[C@@H](C)Oc2ccccc2S1(=O)=O (single isomer, unassigned) [Example 15]",10 to 100 nM
7,"Cc1ccc(C(OCc2cn(CC3CC[N+]4(CCOCC4)CC3)nn2)C(C)(C)C(=O)O)cc1CN1CC(C)Oc2ccccc2S1(=O)=O (stereo in doubt) [Example 56, 3-((1-(3-Oxa-6-azaspiro[5.5]undecan-6-ium-9-ylmethyl)-1H-1,2,3-triazol-4-yl)methoxy)-2,2-dimethyl-3-(4-methyl-3-(((S)-4-methyl-1,1-dioxido-3,4-dihydro-2H-benzo[b][1,4,5]oxathiazepin-2-yl)methyl)phenyl)propanoate]",1000 to 10000 nM
8,"CCn1cc(CO[C@@H](c2ccc(C)c(CN3CC(C)Cc4ccncc4S3(=O)=O)c2)C(C)(C)C(=O)O)nn1 (stereo in doubt) [Example 73, (3S)-((1-ethyl-1H-1,2,3-triazol-4-yl)methoxy)-2,2-dimethyl-3-(4-methyl-3-(((R)-4-methyl-1,1-dioxido-4,5-dihydropyrido[4,3-f][1,2]thiazepin-2(3H)-yl)methyl)phenyl)propanoic acid]",10 to 100 nM
9,"Cc1ccc(C(OCc2cn(Cc3cccc(Br)c3)nn2)C(C)(C)C(=O)O)cc1CN1C[C@@H](C)Oc2ccccc2S1(=O)=O (stereo partly drawn) [Example 1, 3-((1-(3-Bromobenzyl)-1H-1,2,3-triazol-4-yl)methoxy)-2,2-dimethyl-3-(4-methyl-3-(((R)-4-methyl-1,1-dioxido-3,4-dihydro-2H-benzo[b][1,4,5]oxathiazepin-2-yl)methyl)phenyl)propanoic acid]",< 1 nM
10,"C#CCOC(c1ccc(C)c(CN2C[C@@H](C)Oc3ccccc3S2(=O)=O)c1)C(C)(C)C(=O)O (stereo partly drawn) [Example 2, 2,2-Dimethyl-3-(4-methyl-3-(((R)-4-methyl-1,1-dioxido-3,4-dihydro-2H-benzo[b][1,4,5]oxathiazepin-2-yl)methyl)phenyl)-3-(prop-2-yn-1-yloxy)propanoic acid]",100 to 1000 nM
11,"Cc1ccc(C(OCc2cn(Cc3cccc(CN=[N+]=[N-])c3)nn2)C(C)(C)C(=O)O)cc1CN1C[C@@H](C)Oc2ccccc2S1(=O)=O (stereo partly drawn) [Example 3, 3-((1-(3-(Azidomethyl)benzyl)-1H-1,2,3-triazol-4-yl)methoxy)-2,2-dimethyl-3-(4-methyl-3-(((R)-4-methyl-1,1-dioxido-3,4-dihydro-2H-benzo[b][1,4,5]oxathiazepin-2-yl)methyl)phenyl)propanoic acid]",< 1 nM
12,"CCCn1cc(COC(c2ccc(C)c(CN3C[C@@H](CC)Oc4ccccc4S3(=O)=O)c2)C(C)(C)C(=O)O)nn1 (stereo partly drawn) [Example 4, 3-(3-(((R)-4-ethyl-1,1-dioxido-3,4-dihydro-2H-benzo[b][1,4,5]oxathiazepin-2-yl)methyl)-4-methylphenyl)-2,2-dimethyl-3-((1-propyl-1H-1,2,3-triazol-4-yl)methoxy)propanoic acid]",< 1 nM
13,"CC[C@@H]1CN(Cc2cc([C@@H](OCc3cn(CC)nn3)C(C)(C)C(=O)O)ccc2C)S(=O)(=O)c2ccccc2O1 [Example 5, (R)-3-(3-(((R)-4-ethyl-1,1-dioxido-3,4-dihydro-2H-benzo[b][1,4,5]oxathiazepin-2-yl)methyl)-4-methylphenyl)-3-((1-ethyl-1H-1,2,3-triazol-4-yl)methoxy)-2,2-dimethylpropanoic acid]",< 1 nM

# Same assay, conditions: NQO1 specific activity induction, 48 hours with compound
row,SMILES,EC50
1,"Cc1ccc(C(OCc2cn(CC(C)C)nn2)C(C)(C)C(=O)O)cc1CN1C[C@@H](C)Oc2ccccc2S1(=O)=O (single isomer, unassigned) [Example 13]",1 to 10 nM
2,"Cc1ccc(C(OCc2cn(CC(C)C)nn2)C(C)(C)C(=O)O)cc1CN1C[C@@H](C)Oc2ccccc2S1(=O)=O (single isomer, unassigned) [Example 16]",10 to 100 nM
3,"Cc1ccc(C(OCc2cn(C3COC3)nn2)C(C)(C)C(=O)O)cc1CN1C[C@@H](C)Cc2ccncc2S1(=O)=O (single isomer, unassigned) [Example 102]",10 to 100 nM
4,"Cc1ccc(C(OCc2cn(C3COC3)nn2)C(C)(C)C(=O)O)cc1CN1C[C@@H](C)Cc2ccncc2S1(=O)=O (single isomer, unassigned) [Example 103]",1 to 10 nM
